The values that follow come from ChEMBL document CHEMBL1129180, “Phosphoramidate derivatives of 2,3-didehydro-2,3-dideoxyadenosine [d4A] have markedly improved anti-HIV potency and selectivity” (Bioorg Med Chem Lett, 1996).

Molecules are shown by their SMILES. Converted amounts (≈) assume the structure as drawn.

Assay [1] concerns CCRF-CEM. The assay is described as follows: Compound was evaluated for antiviral activity against HIV-2 (ROD) infected CEM cells. It counts as functional, cell-based. Conditions: Homo sapiens.
For assay [2], the system named is CCRF-CEM. The assay is described as follows: Compound was evaluated for antiviral activity against HIV-1 (IIIB) infected CEM cells. Conditions: Homo sapiens. It counts as functional, cell-based.
Assay [3] deals with CCRF-CEM. The assay is described as follows: Compound was evaluated for cytotoxic activity against CEM cells. Conditions: Homo sapiens. The class given is functional.
A short description of assay [4]: Compound was evaluated minimum inhibitory concentration against moloney sarcoma virus (MSV) infected C3H cell cultures. It counts as functional. The settings on record: Mus musculus.
Assay [5] can be described thus: Ratio of CC50/EC50 was calculated. It counts as functional.
A short description of assay [6]: Compound was evaluated cytotoxicity against moloney sarcoma virus (MSV) infected C3H cell cultures. It counts as functional. The settings on record: Mus musculus.

What is called EC50 is the concentration giving half of the maximal effect. The low end stands for higher potency in that assay, the high end for lower potency in that assay. A word on the CC50: it is the concentration that lowers cell viability or growth by half. High values mean better tolerance by the cells, low ones harm at low concentration. As for `Nc1ncnc2c1ncn2[C@H]1C=C[C@@H](CO)O1`, the EC50 in the assay with CCRF-CEM [1] and with CCRF-CEM [2] was 20 µM in each case. Besides, the values for the cytotoxic concentration (CC50) (in the assay on CCRF-CEM [3]; in assay [6]) were 91 µM and > 100 µM, respectively. This compound also yielded an MIC in assay [4] of 31 µM (≈ 7.23 µg/mL). The Selectivity index in assay [5] was 4.5.

With `COC(=O)C(C)NP(=O)(OCC1C=CC(n2cnc3c(N)ncnc32)O1)Oc1ccccc1` (configuration not stated), the values for the EC50 in the assay with CCRF-CEM [1] and in the assay with CCRF-CEM [2] were 0.018 µM and 0.006 µM, respectively. Besides, the CC50 in the assay on CCRF-CEM [3] was 3.8 µM; in assay [6], > 100 µM. In assay [4], this compound had an MIC of 9.4 µM (≈ 4.46 µg/mL). For the same compound, the Selectivity index in assay [5] is 633.

Regarding `CC(NP(=O)(OCC1C=CC(n2cnc3c(N)ncnc32)O1)Oc1ccccc1)C(=O)OCc1ccccc1` (configuration not stated), the EC50 with CCRF-CEM [1] and in the assay on CCRF-CEM [2] was 0.008 µM each time. The values for the CC50 (in the assay on CCRF-CEM [3]; in assay [6]) were 1.9 µM and > 4 µM, respectively. This compound also showed an MIC in assay [4] of 0.2 µM (≈ 0.11 µg/mL). Also, the Selectivity index in assay [5] is 237.

As for `Cc1cn([C@H]2C[C@H](N=[N+]=[N-])[C@@H](CO)O2)c(=O)[nH]c1=O` [ZIDOVUDINE], the values for the CC50 (in the assay with CCRF-CEM [3]; in assay [6]) were > 100 µM and > 20 µM, respectively. This compound also had an MIC in assay [4] of 0.02 µM (≈ 0.00534 µg/mL). Further, in assay [5], the Selectivity index is > 20000.
